Assay results taken from US10011863B2, “Methods for detecting enhanced NMDA receptor function and uses thereof” (INOVA HEALTH SYSTEM, priority 2016, dated 2018).

Legend:
[1] = target: T1, recombinant human Elk-1 protein (Homo sapiens, UniProt P19419); experiment: Electrophoretic Mobility Shift Assay (EMSA); type: binding; conditions: 1 μg recombinant human Elk-1; gel stained for DNA (SYBR Green) and protein (SYPRO Ruby)
T1 construct: purchased Sigma Aldrich
T1 sequence (P19419 1-428): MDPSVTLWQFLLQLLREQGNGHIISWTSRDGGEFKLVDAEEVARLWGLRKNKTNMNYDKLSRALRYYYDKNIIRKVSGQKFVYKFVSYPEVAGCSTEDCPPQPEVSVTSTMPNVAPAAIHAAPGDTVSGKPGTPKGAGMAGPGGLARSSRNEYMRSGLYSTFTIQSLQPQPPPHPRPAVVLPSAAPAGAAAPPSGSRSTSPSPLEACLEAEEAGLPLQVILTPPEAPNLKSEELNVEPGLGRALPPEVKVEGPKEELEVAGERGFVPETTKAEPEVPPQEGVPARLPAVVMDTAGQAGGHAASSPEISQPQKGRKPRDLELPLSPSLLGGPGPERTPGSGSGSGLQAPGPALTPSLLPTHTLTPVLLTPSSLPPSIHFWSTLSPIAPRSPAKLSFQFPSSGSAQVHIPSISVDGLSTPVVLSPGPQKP
Method: FIG. 2 depicts binding of recombinant Elk-1 protein (an ETS transcription factor) to double stranded DNAs containing the single nucleotide polymorphism (SNP) rs3764030 variant A allele from the human GRIN2B gene promoter. Double-stranded DNA targets (Methods) were sequentially incubated with 1 μg recombinant human Elk-1 protein in EMSA buffer, then incubated with the Elk-1 antibody 20 minutes. […] Samples were electrophoresed through 6% polyacrylamide gels in HEPES buffer pH 6.3, without polydldC. The gel was then stained with the SYBR Green to visualize DNA and SYPRO Ruby for protein bound to DNA. The stained gel was scanned using G:BOX (Syngene, US) for imaging. Elk-1 bound to DNA is indicated by the arrow.
Electrophoretic Mobility Shift Assay (EMSA). To monitor the interaction between the ETS domain transcription factor, Elk-1, and its DNA recognition sequence in vitro, we used EMSA. The DNA sequences for positive control containing a GGAT consensus core binding sequence were: Forward: 5′ […] 3′ (SEQ ID NO:2) and Reverse: 5′ […] 3′ (SEQ ID NO:3). The negative control region was: Forward: 5′ […] 3′ (SEQ ID NO:4) and Reverse: 5′ […] 3′ (SEQ ID NO:5), as described in Wei et al (2010). The forward and reverse sequence for GRIN2B A allele which created the ETS binding site were: 5′ […] 3′ (SEQ ID NO:6)and 5′ […] 3′ (SEQ ID NO:7), repectively. […]

[2] = system: human GRIN2B promoter (G allele of SNP rs3764030) in N2a cells; experiment: dual-luciferase reporter gene assay, GRIN2B promoter G allele plasmid; type: cell-based, murine; conditions: N2A cells transfected with G allele luciferase reporter plasmid; increasing concentrations of NMDA
Method: (§1) FIG. 3 depicts a concentration dependent response of human GRIN2B promoter in N2a cells carrying either the A or G alleles of SNP rs3764030 to NMDA. Luciferase reporter gene plasmids were constructed in pGL 4.10 (to produce Firefly luciferase, Promega, US). Luciferase reporter plasmids and the pGL4.75 plasmid (to produce Renilla luciferase as a reference) were co-transfected into retinoic acid differentiated N2a cells and assayed for (Methods). After 24 hours of transfection, the cells were incubated for six hours with 0, 30, 50, 70 or 90 μM NMDA for transcription factors binding and then replaced with complete media (with 10% FBS) and cultured for an additional 40-44 hrs. Data are presented as means±SE.
(§2) Molecular and cellular characterization of a functional GRIN2B SNP: Luciferase vector construction. […]
(§3) Cell Culture, Transfection, and Luciferase assay. […] The luciferase activities were then measured in Synergy 4 plate reader (Biotek, US).
(§4) Murine Neuro-2a neuroblastoma cells were maintained in RPMI medium 1640 with 10% Fetal Bovine Serum (complete medium) at 37° C. in 5% CO2. […] The luciferase activities were then measured in Synergy 4 plate reader (Biotek US).

[3] = system: human GRIN2B promoter (A allele of SNP rs3764030) in N2a cells; experiment: dual-luciferase reporter gene assay, GRIN2B promoter A allele plasmid; type: cell-based, murine
Method: as §1, §2, §3, §4

| Compound | binding of recombinant Elk-1 to DNA probe [1] | luciferase reporter response to NMDA treatment [2] | dose-dependent increase in luciferase activity ([3]; N2A cells transfected with A allele reporter, increasing concentrations of NMDA (0, 30, 50, 70, 90 μM)) | reporter gene activity of A allele relative to cells carrying the G allele reporter ([3]; NMDA receptor activation, dose-dependent, A allele vs G allele) [fold] |
| --- | --- | --- | --- | --- |
| A allele DNA probe: annealed dsDNA of GRIN2B A allele, 5′ CATCTCCGGGGAACACGCGAA 3′ (SEQ ID NO:6) and SEQ ID NO:7, creating ETS binding site (chain 2 TTCGCGTGTTCCCCGGAGATG; listed as DNA, chemistry not given here) | bound recombinant Elk-1 to a greater extent than the G allele DNA probe |  |  |  |
| CN[C@H](CC(=O)O)C(=O)O [NMDA, N-methyl-D-aspartate] |  | did not respond | 2.4-11.5 fold | 2 |
